Laboratory results reported in US20090162351A1, “Transdiscal administration of inhibitors of p38 MAP kinase” (DePuy Spine, Inc., priority 2007, published 2009).
≈ marks a conversion by molar mass, not a printed value. Read-outs that look alike come from different tables or passages of the source.

Columns and labels:
[1] = Water solubility; format: physicochemical
[2] = tested on: IL-1β-stimulated NO production in bovine chondrocyte pellets / ARC tissues; experiment: Chondrocyte pellet / ARC culture model: total nitrite and nitrate assay; format: cell-based; conditions: at 5 μM
Text: (§1) Calf articular cartilage was obtained from the knee joints of eight to twelve month old animals and was processed within twenty-four hours after sacrifice. After removal of muscle and ligament, the cartilage was kept moist using phosphate buffer solution (PBS) to prevent tissue dehydration, and was aseptically peeled off from subchondral bone with a scalpel, and the cartilage pieces were further minced into smaller pieces (˜0.3-0.5×˜0.2-0.5 cm cubes). […] Chondrocytes were then enzymatically isolated from the tissue by incubation for overnight at 37° C. with gentle agitation in 0.2% collagenase in Dulbecco's modified eagle media (DMEM). After removal of tissue debris by filtration through cell strainer and the residual collagenase by 3× wash in PBS, cells were finally resuspended at a density of 2.5×10^6 cells/ml in chondrocyte medium. A 1 ml aliquot of the cell suspension was dispensed into either a 15 ml Falcon centrifuge tube or a 96 deep-well plate and centrifuged at 2000×g for five minutes. The chondrocyte pellets were incubated at 37° C. in a humidified atmosphere of 5% CO2 for two to three weeks with a medium change every other day.
(§2) As an alternative to using calf articular cartilage, a commercial Aliginate Recovered Chondrocytes (ARC) system was also used (Articular Engineering, LLC (Northbrook, Ill.)). Use of the commercial system cut down on labor and time in producing chondrocyte pellet. This system produced cartilaginous tissue in vitro using bovine chondrocytes. The first step consisted of culturing chondrocytes in alginate under conditions optimal for the formation of a cell-associated matrix (CM). The second step allowed these cells with their CM, after recovery, to rapidly form and become integrated into a solid mass of cartilage on a porous insert within two weeks.
(§3) Chondrocyte pellets were washed once with 1 ml of Chondrocyte Stimulation Medium and equilibrated in the same medium at room temperature for fifteen to thirty minutes. Compounds were dissolved in H2O, Ethanol or dimethyl sulfoxide (DMSO) (10^−2 M) according to suppliers' instructions and further diluted with Chondrocyte Stimulation Medium to the required concentrations. DMSO concentrations in the culture media should not exceed 1%; this concentration of DMSO has no effect on cartilage proteoglycan metabolism in response to cytokines.
(§4) The pellets were first treated with compounds at desired concentrations at 37° C. for one hour and then incubated for three to five days in the absence or presence of 10 ng/ml of IL-1β. At the end of the incubation, media and pellets were harvested and frozen for further analysis. Pellets were also fixed as needed in 4% (w/v) paraformaldehyde in PBS for histology analysis.
(§5) Nitrate/Nitrite levels were measured using the Griess reaction (Green L. C. et al., “Analysis of Nitrate, Nitrite, and [15N]nitrate in Biological Fluids,” Anal. Biochem. 126: 131-138 (1982)) with a Nitrate/Nitrite Colorimetric Assay Kit (Cayman Chemicals), the contents of which are incorporated herein by reference. The assay involved a simple two-step process. The first step involved conversion of nitrate in 50 μl of culture medium to nitrite utilizing nitrate reductase in a reaction volume of 100 μl at room temperature for two hours. The second step involved the addition of 50 μl of both Griess Reagent 1 and 2, which converted nitrite into a deep purple azo compound in ten minutes. Photometric measurement of the absorbance at 540 or 550 nm due to this azo chromophore accurately determined nitrite concentration. This assay kit cannot be used for RPMI (Roswell Park Memorial Institute) derived tissue culture medium due to interference with the colorimetric reaction.
(§6) To characterize the relative efficacies among different p38 MAP kinase inhibitors, dose-response curves were generated for both PGE2 and NO assays. […] After one hour of treatment, ARCs were stimulated with or without 7.5 ng/ml IL-1β and continued to incubate for five days before assay. […]

[3] = tested on: bovine chondrocyte pellets / ARC tissues stimulated with IL-1β; experiment: Chondrocyte pellet / ARC culture model: GAG degradation assay; format: cell-based; conditions: at 5 μM, 7.5 ng/ml IL-1, five days
[4] = target: CDK1 (Homo sapiens, UniProt P06493); experiment: CDK1 inhibition; format: biochemical
[5] = tested on: human tumor xenograft models; experiment: Human tumor xenograft models; format: in vivo; conditions: single agent
[6] = tested on: IL-1β-stimulated PGE2 synthesis in bovine chondrocyte pellets / ARC tissues; experiment: Chondrocyte pellet / ARC culture model: Prostaglandin E2 assay; format: cell-based
Text: as §1, §2, §3, §4
(§7) Prostaglandin E2 (PGE2) was measured with a STAT-Prostaglandin E2 EIA ELISA kit (Cayman Biochemicals). This assay is based on the competition between PGE2 from 50 μl samples and a PGE2-alkaline phosphatase conjugate for a limited amount of PGE2 monoclonal antibody in a reaction volume of 150 μl at room temperature for one hour. The antibody-PGE2 complex bound to a goat polyclonal anti-mouse IgG that had been previously attached to the well. After washing to remove any unbound reagents, para-nitrophenyl phosphate (pNPP) was added to the well. The product of this enzymatic reaction absorbs strongly at 412 nm. Because of the large range in response to IL-1β and other cytokines, PGE2 values were converted to log scale prior to doing t-tests.
as §6, with “assay. The IL-1β-stimulated PGE2 synthesis or NO production was first calculated by subtraction of PGE2/NO levels in the absence of IL-1β from that in the presence of IL-1β.” for “assay.”

[7] = tested on: bovine chondrocyte pellets / ARC tissues stimulated with IL-1β; experiment: Chondrocyte pellet / ARC culture model: GAG degradation assay; format: cell-based; conditions: Bos taurus, Chondrocyte; at 5 μM; read-out: GAG Release (inhibition), Pellet Assay
Text: A chondrocyte pellet culture model was developed for in vitro high throughput screening of therapeutic compounds for inhibition of IL-1β-stimulated matrix degradation. The chondrocyte pellet culture model can be used to detect various potential therapeutic compounds effective in blocking different processes caused by IL-1β stimulation. For example, IL-1β stimulation results in increased glycosaminoglycan (GAG) degradation, prostaglandin E2 (PGE2) synthesis and total nitrite/nitrate production. Compounds with different mechanisms of action may inhibit the increase of one or two or all three of these parameters. For this reason, screening by, for example, measuring only GAG release would be limited to detection of a specific class of inhibitors and may not detect compounds with diversified mechanisms of function which may be involved in inhibition of the IL-1 stimulated inflammatory process. The development of the chondrocyte pellet culture assay system in a 96-well plate made possible large-scale screening of potential therapeutic compounds with different mechanisms of action.
as §1, §2
This tissue is rich in cells surrounded by a cell-associated matrix that is degraded rapidly when the cells are exposed to IL-1. ARC tissues in 3 mm punches at delivery were first dispensed into a 96 deep-well plate, one punch per well, for compound treatment. The subsequent procedures were the same as those used for the chondrocyte pellets.
as §3
The pellets were first treated with compounds at desired concentrations at 37° C. for one hour and then incubated for three to five days in the absence or presence of 10 ng/ml of IL-1β. […]

[8] = tested on: chondrocytes; format: cell-based
Protocol: The LDH activity was determined calorimetrically in an enzymatic test based on the conversion of lactic acid to pyruvate in the presence of chromagenic substrate tetrazolium salt INT that was reduced to formazan.

[9] = tested on: human cancer cell lines; experiment: Cell proliferation in culture; format: cell-based
[10] = tested on: human ARC tissues (human chondrocytes) stimulated with TNFα, IL-1β or IL-6 + IL-6SR; experiment: Human ARC tissues: GAG release; format: cell-based
Protocol: Glycosaminoglycan (GAG) levels in the culture media were determined by measuring the amount of polyanionic material reacting with 1,9-dimethylmethylene blue (DME) as detected by absorbance at 525 nm, using shark chondroitin sulfate as a standard. The DME blue dye-binding solution was prepared by dissolving 16 mg of DME blue in a solution containing 0.304% glycine, 0.23% sodium chloride (NaCl), 9.5 mM hydrochloric acid (HCl), pH=3.0 with absorbance at 525 equal to 0.31. Proteoglycans and proteoglycan metabolites in chondrocyte pellet were released by digesting the pellet with 125 μg/ml of papain in 0.1 M PBS, pH 6.0, 5 mM cysteine, 5 mM ethylene-diamine-tetra-acetic acid disodium salt (Na2EDTA) at 50° C. for overnight. Results are reported as either micrograms of GAG per milliliter or percent of total GAG released into culture medium.
(§8) ® infliximab is a monoclonal antibody against human TNFα. To test whether […]® could modulate cytokine-stimulated responses in chondrocytes, human chondrocyte pellets were first tested for an optimal concentration for cytokine stimulation. Human ARC (i.e., ARCs generated using human chondrocytes) tissues were treated with various concentrations of either TNF or IL-1 for four and five days. The culture media was collected for measurement of GAG content as described above. Other assays were performed as described above. Cytokine dosage at 5 ng/ml and treatment for five days gave a reasonable treatment window, yet was not too challenging for compound efficacy (FIG. 4).
(§9) Human ARC tissues were then treated with various concentrations of […]® in the presence or absence of either 10 ng/ml of TNFα or 5 ng/ml of IL-1β for four or five days.
The efficacy of a monoclonal antibody (mAb) against human IL-6 in inhibition of proteoglycan degradation, NO production and PGE2 synthesis on human ARC tissues stimulated with IL-6 was also tested. Human ARC tissue were treated with 12.5, 25 and 250 ng/ml of IL-6 mAb diluted into chondrocyte stimulation medium. […]

[11] = tested on: cytokine-stimulated PGE2 synthesis in human ARC tissues; experiment: Human ARC tissues: PGE2 synthesis; format: cell-based; conditions: for PGE2 Inhibition, Pellet Assay: TNFα stimulated responses
Protocol: as §7, §8, §9
The efficacy of a monoclonal antibody (mAb) against human IL-6 in inhibition of proteoglycan degradation, NO production and PGE2 synthesis on human ARC tissues stimulated with IL-6 was also tested. Human ARC tissue were treated with 12.5, 25 and 250 ng/ml of IL-6 mAb diluted into chondrocyte stimulation medium. After one hour of treatment at 37° C., ARCs were stimulated with or without 25 ng/ml IL-6, 250 ng/ml IL-6 soluble receptor (IL-6SR) or IL-6 (25 ng/ml)+L-6SR (250 ng/ml) and incubated for five days before the culture media were harvested for assays.

[12] = tested on: cytokine-stimulated NO production in human ARC tissues; experiment: Human ARC tissues: NO production; format: cell-based
Protocol: as §5, §8, §9
The efficacy of a monoclonal antibody (mAb) against human IL-6 in inhibition of proteoglycan degradation, NO production and PGE2 synthesis on human ARC tissues stimulated with IL-6 was also tested. […]

[13] = in vivo; cited from earlier work
[14] = tested on: annulus fibrosus and nucleus pulposus cells from bovine caudal discs treated with IL-1β; experiment: 3D in vitro disc cell model: GAG (DMMB); format: cell-based; conditions: 10 ng/ml IL-1β; inhibitor 1 μM, rhGDF-5 200 ng/ml
Text: (§10) Three-dimensional in vitro annulus fibrosis (AF) and nucleus pulposus (NP) models were established to investigate proteoglycan modulation and changes in gene expression in response to inflammatory cytokines such as interleukin-1 (e.g., IL-1β) and potential therapeutic agents such as growth and differentiation factor (GDF-5), and p38 MAP kinase inhibitors. AF and NP cells from bovine caudal discs were isolated by enzymatic digestion and seeded (2×10^6 cells/cm^2) onto Millipore CM filters coated with Collagen Type II and cultured in DMEM/20% heat-inactivated FBS, 100 ug/ml ascorbic acid and 5 ng/ml TGFβ1. […] Results were evaluated by histology (Tol. Blue staining was used to observe matrix production). Dimethylmethylene blue (DMMB) was used to detect sulphated glycosaminoglycans in a GAG/DNA assay. Taqman analysis was performed on aggrecans (AGG), collagen type 1 (col-1), collagen type 2 (col-2), and MMP 3, MMP 9 and MMP 13. In FIGS. 19A-C and 20A-C, annulus fibrosus and nucleus pulposus cells from bovine caudal discs were isolated by enzymatic digestion and seeded (2×10^6 cells/cm2) onto Millipore CM filters coated with Collagen Type II and cultured in DMEM/20% heat-inactivated FBS/100 ug/ml ascorbic acid and 5 ng/ml TGF-β1.

[15] = tested on: aggrecan and collagen type 2 mRNA in bovine AF and NP cells; experiment: 3D in vitro disc cell model: Taqman gene expression; format: cell-based; conditions: 10 ng/ml IL-1β; inhibitor 1 μM, rhGDF-5 200 ng/ml
Text: as §10

[16] = 10 ng/ml TNFα, four or five days
[17] = at 1 ng/ml, TNFα stimulated responses

CDK1, sequence (P06493 whole entry, species assumed): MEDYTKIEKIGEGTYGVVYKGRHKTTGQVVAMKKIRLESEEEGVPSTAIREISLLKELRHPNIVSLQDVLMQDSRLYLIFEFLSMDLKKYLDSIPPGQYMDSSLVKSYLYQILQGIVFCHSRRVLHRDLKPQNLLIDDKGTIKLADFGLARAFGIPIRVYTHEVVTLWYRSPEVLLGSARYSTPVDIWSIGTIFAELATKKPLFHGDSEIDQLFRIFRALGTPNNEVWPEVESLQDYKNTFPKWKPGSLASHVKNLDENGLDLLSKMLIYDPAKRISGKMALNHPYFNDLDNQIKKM
CDK1, sequence (P14635 whole entry partner, species assumed): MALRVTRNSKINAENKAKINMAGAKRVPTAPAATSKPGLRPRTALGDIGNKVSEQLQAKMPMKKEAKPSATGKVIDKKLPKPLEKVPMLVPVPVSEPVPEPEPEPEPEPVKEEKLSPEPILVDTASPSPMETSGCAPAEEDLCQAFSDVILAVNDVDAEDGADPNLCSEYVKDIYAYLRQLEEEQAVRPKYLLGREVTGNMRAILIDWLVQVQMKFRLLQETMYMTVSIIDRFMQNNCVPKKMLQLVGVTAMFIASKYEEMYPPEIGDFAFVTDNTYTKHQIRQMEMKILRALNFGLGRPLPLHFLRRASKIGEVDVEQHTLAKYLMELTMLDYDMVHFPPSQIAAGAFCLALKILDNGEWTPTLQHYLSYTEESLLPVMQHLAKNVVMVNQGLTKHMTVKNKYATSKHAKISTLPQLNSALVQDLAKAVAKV

Nc1nc(Nc2ccc(S(N)(=O)=O)cc2)nn1C(=O)c1c(F)cccc1F [JNJ 7706621, 4-[5-Amino-1-(2,6-difluoro-benzoyl)-1H-[1,2,4]triazol-3-ylamino]-benzenesulfonamide]
solubility ([1]; at pH 7.4): 17 µg/mL (≈ 43.1 µM) | solubility ([1]; water, simulated gastric fluid, at pH 2, read-out: solubility): 6 µg/mL (≈ 15.2 µM) | inhibition at 5 µM ([2]; Bos taurus, Chondrocyte): 100% | NO production (in words) ([2]; ARC tissues, 7.5 ng/ml IL-1, five days): completely blocked | GAG release (in words) [3]: completely blocked | IC50 [4]: 9 nM | antitumor activity (in words) [5]: single agent antitumor activity | PGE2 Inhibition, Pellet Assay (in words) ([6]; Table 3B): No effect | PGE2 synthesis (in words) ([6]; at 5 μM, ARC tissues, 7.5 ng/ml IL-1, five days): little effect | inhibition at 5 µM [7]: 100% | cytotoxicity to chondrocytes, LDH (in words) [8]: little toxicity | cell cycle effects (in words) [9]: induced G2M arrest, endoreduplication and apoptosis | IC50 ([9]; Homo sapiens, in 9 cell lines, read-out: inhibits cell proliferation in culture, IC50): 337 ± 123 nM

REMICADE®: monoclonal antibody against human TNFα
IL-1β stimulated responses: GAG release (in words) ([10]; 5 ng/ml IL-1β): little effect | TNFα-induced GAG release (in words) [10, 16]: strongly inhibited | GAG Release (inhibition), Pellet Assay [10, 17]: 100% at 1 ng/ml | IL-1β stimulated responses: PGE2 synthesis (in words) ([11]; 5 ng/ml IL-1β): little effect | TNFα-induced PGE2 synthesis (in words) [11, 16]: strongly inhibited | PGE2 Inhibition, Pellet Assay ([11]; at 1 ng/ml): 50% at 1 ng/ml | PGE2 Inhibition, Pellet Assay ([11]; at 10 ng/ml): 100% at | IL-1β stimulated responses: NO production (in words) ([12]; 5 ng/ml IL-1β): little effect | TNFα-induced NO production (in words) [12, 16]: strongly inhibited | NO Inhibition, Pellet Assay [12, 17]: 100% at | half-life when administered systemically [13]: about 1 week

B1: rhGDF-5: growth and differentiation factor, member of the BMP family and TGF-beta superfamily (protein, UniProt P43026 382-501, looked up)
Growth/differentiation factor …: APLATRQGKRPSKNLKARCSRKALHVNFKDMGWDDWIIAPLEYEAFHCEGLCEFPLRSHLEPTNHAVIQTLMNSMDPESTPPTCCVPTRLSPISILFIDSANNVVYKQYEDMVVESCGCR
amount of GAG in the tissue (in words) [14]: restored | gene expression of Agg and Col 2 (in words) [15]: restored
